Results: ChEMBL document CHEMBL3797202, “Novel Oxindole Sulfonamides and Sulfamides: EPZ031686, the First Orally Bioavailable Small Molecule SMYD3 Inhibitor” (ACS Med Chem Lett, 2016)

Assays:
[1] = target: T1, Histone-lysine N-methyltransferase NSD2 (Homo sapiens) (UniProt O96028); experiment: Inhibition of WHSC1 (unknown origin) at 10 uM relative to control
T1 sequence (whole entry): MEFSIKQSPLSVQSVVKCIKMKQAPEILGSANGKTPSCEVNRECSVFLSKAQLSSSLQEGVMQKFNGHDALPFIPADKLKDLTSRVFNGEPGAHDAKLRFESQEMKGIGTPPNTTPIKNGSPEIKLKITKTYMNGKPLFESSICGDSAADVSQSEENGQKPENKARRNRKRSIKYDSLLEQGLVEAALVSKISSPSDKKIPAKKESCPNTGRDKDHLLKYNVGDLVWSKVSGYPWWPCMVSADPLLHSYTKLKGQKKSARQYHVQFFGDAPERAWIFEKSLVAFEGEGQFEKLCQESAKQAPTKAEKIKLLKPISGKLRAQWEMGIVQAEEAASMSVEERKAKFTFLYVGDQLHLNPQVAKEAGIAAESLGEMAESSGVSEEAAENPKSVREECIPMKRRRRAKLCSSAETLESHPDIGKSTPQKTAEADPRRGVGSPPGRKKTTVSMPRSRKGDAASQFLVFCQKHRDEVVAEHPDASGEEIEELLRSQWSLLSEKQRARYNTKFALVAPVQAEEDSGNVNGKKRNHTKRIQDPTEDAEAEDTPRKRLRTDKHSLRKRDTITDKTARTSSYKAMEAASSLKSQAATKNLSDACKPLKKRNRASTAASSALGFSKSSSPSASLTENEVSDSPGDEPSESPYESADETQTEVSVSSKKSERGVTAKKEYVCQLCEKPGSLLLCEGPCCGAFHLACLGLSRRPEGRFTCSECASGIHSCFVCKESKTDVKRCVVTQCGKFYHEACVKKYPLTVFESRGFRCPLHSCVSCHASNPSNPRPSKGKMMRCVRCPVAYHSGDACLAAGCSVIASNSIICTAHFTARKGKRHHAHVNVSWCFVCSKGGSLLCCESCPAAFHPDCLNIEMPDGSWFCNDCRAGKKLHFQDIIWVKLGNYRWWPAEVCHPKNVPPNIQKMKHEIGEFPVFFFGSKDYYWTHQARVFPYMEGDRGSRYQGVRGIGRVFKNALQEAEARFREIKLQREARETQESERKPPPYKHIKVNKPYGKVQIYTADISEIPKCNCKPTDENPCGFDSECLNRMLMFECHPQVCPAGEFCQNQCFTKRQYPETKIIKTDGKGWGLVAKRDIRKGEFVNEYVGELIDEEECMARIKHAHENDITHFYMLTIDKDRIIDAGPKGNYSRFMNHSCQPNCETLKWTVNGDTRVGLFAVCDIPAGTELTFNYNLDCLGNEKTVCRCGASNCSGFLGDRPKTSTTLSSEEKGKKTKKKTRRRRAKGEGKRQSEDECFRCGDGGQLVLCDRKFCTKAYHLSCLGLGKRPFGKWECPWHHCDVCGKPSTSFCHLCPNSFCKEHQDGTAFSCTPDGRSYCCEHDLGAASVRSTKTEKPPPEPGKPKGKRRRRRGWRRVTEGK

[2] = target: Histone-lysine N-methyltransferase, H3 lysine-79 specific (Homo sapiens) (UniProt Q8TEK3); experiment: Inhibition of DOT1L (unknown origin) at 10 uM relative to control
[3] = target: T2, Histone-lysine N-methyltransferase EHMT2 (Homo sapiens) (UniProt Q96KQ7); experiment: Inhibition of EHMT2 (unknown origin) at 10 uM relative to control
T2 sequence (whole entry): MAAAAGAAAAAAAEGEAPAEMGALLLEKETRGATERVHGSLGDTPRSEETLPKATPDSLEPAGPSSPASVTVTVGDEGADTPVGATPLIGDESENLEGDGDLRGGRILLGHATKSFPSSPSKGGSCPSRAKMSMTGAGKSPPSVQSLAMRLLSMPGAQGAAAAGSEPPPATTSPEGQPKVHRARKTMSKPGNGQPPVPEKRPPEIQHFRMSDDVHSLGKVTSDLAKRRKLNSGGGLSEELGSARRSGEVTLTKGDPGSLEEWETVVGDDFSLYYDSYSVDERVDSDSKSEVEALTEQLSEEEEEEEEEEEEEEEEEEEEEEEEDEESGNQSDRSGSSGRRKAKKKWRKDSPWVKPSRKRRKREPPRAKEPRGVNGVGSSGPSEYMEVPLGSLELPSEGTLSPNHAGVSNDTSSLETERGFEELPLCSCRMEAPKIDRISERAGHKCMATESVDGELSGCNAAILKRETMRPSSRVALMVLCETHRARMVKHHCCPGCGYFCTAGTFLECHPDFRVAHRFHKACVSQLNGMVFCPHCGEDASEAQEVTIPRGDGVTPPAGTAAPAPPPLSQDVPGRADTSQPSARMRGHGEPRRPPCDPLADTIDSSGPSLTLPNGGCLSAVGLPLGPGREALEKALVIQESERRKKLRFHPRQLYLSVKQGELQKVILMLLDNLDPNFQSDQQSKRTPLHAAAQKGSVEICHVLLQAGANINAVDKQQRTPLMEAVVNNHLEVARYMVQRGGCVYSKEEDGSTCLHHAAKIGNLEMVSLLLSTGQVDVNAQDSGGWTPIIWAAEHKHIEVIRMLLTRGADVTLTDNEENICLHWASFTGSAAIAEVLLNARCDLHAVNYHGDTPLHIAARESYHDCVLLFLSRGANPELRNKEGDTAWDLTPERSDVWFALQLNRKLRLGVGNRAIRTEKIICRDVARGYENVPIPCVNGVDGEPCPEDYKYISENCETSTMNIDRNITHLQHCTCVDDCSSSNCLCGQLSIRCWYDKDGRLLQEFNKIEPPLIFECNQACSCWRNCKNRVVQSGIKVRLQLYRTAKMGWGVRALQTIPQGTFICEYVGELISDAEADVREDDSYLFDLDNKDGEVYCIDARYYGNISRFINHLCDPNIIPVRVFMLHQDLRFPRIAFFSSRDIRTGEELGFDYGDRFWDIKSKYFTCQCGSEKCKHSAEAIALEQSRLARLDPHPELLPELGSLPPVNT

Measured: inhibition

Chain of Histone-lysine N-methyltransferase, H3 lysine-79 specific (Homo sapiens) (Q8TEK3 whole entry, looked up): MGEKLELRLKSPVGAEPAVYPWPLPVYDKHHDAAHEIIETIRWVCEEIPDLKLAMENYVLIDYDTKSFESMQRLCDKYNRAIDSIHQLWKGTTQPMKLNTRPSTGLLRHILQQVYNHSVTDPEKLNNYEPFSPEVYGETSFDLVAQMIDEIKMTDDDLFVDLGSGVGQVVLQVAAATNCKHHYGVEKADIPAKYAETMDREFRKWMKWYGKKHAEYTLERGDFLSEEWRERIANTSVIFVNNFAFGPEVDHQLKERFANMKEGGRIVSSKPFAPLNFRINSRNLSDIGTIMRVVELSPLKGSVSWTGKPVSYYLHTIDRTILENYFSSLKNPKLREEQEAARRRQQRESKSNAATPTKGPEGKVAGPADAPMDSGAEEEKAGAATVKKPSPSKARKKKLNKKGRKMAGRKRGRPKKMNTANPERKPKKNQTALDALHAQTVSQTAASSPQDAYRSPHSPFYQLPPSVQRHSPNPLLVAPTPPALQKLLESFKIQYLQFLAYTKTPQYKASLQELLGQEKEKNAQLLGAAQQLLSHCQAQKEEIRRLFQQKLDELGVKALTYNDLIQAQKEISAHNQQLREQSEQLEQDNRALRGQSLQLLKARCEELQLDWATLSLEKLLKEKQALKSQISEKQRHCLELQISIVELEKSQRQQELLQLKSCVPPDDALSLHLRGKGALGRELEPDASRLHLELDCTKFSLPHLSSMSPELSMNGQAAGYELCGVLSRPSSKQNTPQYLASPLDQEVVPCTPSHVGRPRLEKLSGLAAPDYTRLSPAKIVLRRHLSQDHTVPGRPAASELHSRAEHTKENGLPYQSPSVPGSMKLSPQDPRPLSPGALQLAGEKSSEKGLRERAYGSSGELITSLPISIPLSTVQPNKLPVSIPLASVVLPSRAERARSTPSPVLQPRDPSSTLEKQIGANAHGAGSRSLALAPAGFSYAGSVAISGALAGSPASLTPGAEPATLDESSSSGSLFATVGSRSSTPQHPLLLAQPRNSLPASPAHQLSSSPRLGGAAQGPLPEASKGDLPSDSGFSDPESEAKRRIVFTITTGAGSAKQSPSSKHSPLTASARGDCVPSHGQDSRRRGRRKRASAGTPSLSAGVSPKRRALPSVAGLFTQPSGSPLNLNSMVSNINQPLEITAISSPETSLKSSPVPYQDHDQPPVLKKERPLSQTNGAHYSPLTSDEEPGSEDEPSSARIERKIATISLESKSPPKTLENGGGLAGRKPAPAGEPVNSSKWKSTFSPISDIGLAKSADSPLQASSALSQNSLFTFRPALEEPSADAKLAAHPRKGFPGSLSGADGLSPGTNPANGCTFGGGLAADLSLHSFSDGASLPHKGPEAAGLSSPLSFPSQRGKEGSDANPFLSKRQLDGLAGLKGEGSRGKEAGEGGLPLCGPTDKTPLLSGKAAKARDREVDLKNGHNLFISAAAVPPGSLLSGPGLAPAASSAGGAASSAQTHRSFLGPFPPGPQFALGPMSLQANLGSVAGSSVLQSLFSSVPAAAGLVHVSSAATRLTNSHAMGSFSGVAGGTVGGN

O=C1Cc2cc(C(=O)N[C@H]3C[C@H]4CC[C@@H](C3)N4S(=O)(=O)N3CCC(NCc4ccccc4)CC3)c(Cl)cc2N1
< 30%: [1] | [2] | [3]

O=C1Cc2cc(C(=O)N[C@H]3C[C@H]4CC[C@@H](C3)N4S(=O)(=O)CC3CCN(CCCC(F)(F)F)CC3)c(Cl)cc2N1
< 30%: [1] | [2] | [3]
